Data taken from patent US20150018384A1, “TREATMENT FOR HIGH CHOLESTEROL” (FibroGen, Inc., priority 2012, published 2015).
Marks after values point to notes of the source that are not given here.

Columns and labels:
PHD3 = PHD3 (Homo sapiens, UniProt Q9H6Z9); experiment: HIF prolyl hydroxylase enzyme assay, PHD3; type: biochemical
Text: (§1) Suitable assay methods are well known in the art.

[1] = system: subjects with end-stage renal disease (ESRD) receiving maintenance hemodialysis; experiment: Study 2: phase 2 study of compound A vs EPO in ESRD subjects on maintenance hemodialysis; type: in vivo, human
Text: A total of n=20 subjects were selected and assayed for the complete lipid panel as described above. Subjects on this study protocol were not required to fast nor have any diet restrictions.

PHD1 = PHD1 (Homo sapiens, UniProt Q96KS0); experiment: HIF prolyl hydroxylase enzyme assay, PHD1; type: biochemical
Text: as §1

[2] = system: subjects with end stage renal disease (ESRD); experiment: ESRD subjects switched from epoetin alfa to Compound A or continued on epoetin alfa; type: in vivo, human; settings: six weeks
Experimental: Mean total cholesterol change for the Compound A-treated subjects (all cohorts) was a decrease of 15 mg/dL compared to an increase of 18 mg/dL for the epoetin alfa treated subjects.

Sprague-Dawley rats = experiment: Single oral dose lipid panel in rats; type: in vivo, rat; settings: fasted rats, single oral dose 60 mg/kg, after 24 hours
Experimental: Blood samples were collected at baseline (pre-dose) and approximately 24 hours following dosing to determine levels of cholesterol, HDL, LDL and the LDL/HDL ratio.

healthy subjects = experiment: Circulating total cholesterol and LDL-C in healthy subjects dosed twice per week; type: in vivo, human; settings: 1.88 mg/Kg orally twice per week, average (SD), n=6
Experimental: Subjects were fasted overnight prior on subsequent dosing days. Overnight fasting was not required on non-dosing days. The samples had been stored frozen at −70° C. for up to 6 years, and had undergone up to two thaw/freeze cycles prior to testing. Results are presented separately for samples collected during fasting: Day 1 (0, 1, 2 hrs post-dose), Day 2 (24 hrs), Day 3 (72 hrs), Day 7 (168 hrs), Day 10 (240 hrs) and Day 17 (408 hours).
Samples were analyzed using validated assays on a Roche Modular system. Total cholesterol was measured using the CHOD-PAP reagent from Roche, Cat. No. 11875540216. HDL cholesterol was measured using reagents from Polymedco, Cat. No. 9400 (data not shown). LDL cholesterol was measured using the LDL-C plus 2nd generation reagents from Roche, Cat. No. 04711220190. Triglycerides were measured using GPO-PAP reagent from Roche, Cat. No. 11730711216 (data not shown).

[3] = system: subjects with chronic kidney disease (CKD); experiment: Phase 2b study in CKD subjects with anemia, Compound A vs placebo; type: in vivo, human
Experimental: The Hb target was 11 g/dL. The primary efficacy endpoint was the maximum change of Hb from baseline by Week 9.
Subjects were stratified by baseline (BL) total cholesterol (either >200 mg/dL or s 200 mg/dL) and analyzed for mean total cholesterol and LDL-C over the course of treatment.

[4] = system: non-dialysis chronic kidney disease (CKD) patients with anemia; experiment: Study 1: Phase 2 study of compound A in non-dialysis CKD patients with anemia; type: in vivo, human
Experimental: The primary objectives of this study were to evaluate the efficacy and safety of the compound in the correction of anemia (i.e. increasing hemoglobin levels) in non-dialysis CKD patients. The study included six dosing cohorts of approximately 24 subjects each. […] Cohort A and cohort B both received a weight-adjusted dose of approximately 1 mg/kg, three times a week for 16 weeks; the dosing in cohort B was reduced to twice a week once anemia was corrected. Cohort C and cohort D received a fixed dose of 50 mg or 100 mg, respectively, three times a week, for 24 weeks. Cohort E received a weight-adjusted dose of approximately 1 mg/kg twice a week, reduced to once a week once anemia was corrected. Cohort F received a fixed dose of 70 mg, three times a week.
Total cholesterol and lipid panels were measured by standard procedures.
Total cholesterol was measured from all subjects in Study 1 or Study 2 as part of the chemistry panel at prespecified time points. […] Total cholesterol decreased initially with treatment, reached a plateau where it remained during treatment, and then returned to baseline after treatment ends.
Frozen serum samples, collected from subjects in Study 1 or Study 2, were selected for the lipid panel analysis based on the following criteria: 1) with matched baseline (D1W1) and; 2) at least one other time point. The complete lipid panel includes: total cholesterol (TC), HDL, LDL-measured, Triglycerides and VLDL (Calculated). Ratio of HDL/LDL or LDL/HDL were analyzed.
A total of n=9 subjects samples were selected and assayed for the complete lipid panel as described above. Subjects on this study protocol were not required to fast nor have any diet restrictions.

[5] = BL total cholesterol >200 mg/dL, visit D1W1 (baseline)
[6] = BL total cholesterol >200 mg/dL, visit W9
[7] = BL total cholesterol ≦200 mg/dL, visit D1W1 (baseline)
[8] = BL total cholesterol ≦200 mg/dL, visit W9
[9] = n=20, 9 weeks vs baseline, FIG. 8A
[10] = orally three times a week for 8 weeks
[11] = six subjects with identical time points, FIG. 7

Sequence of PHD3 (Q9H6Z9 whole entry): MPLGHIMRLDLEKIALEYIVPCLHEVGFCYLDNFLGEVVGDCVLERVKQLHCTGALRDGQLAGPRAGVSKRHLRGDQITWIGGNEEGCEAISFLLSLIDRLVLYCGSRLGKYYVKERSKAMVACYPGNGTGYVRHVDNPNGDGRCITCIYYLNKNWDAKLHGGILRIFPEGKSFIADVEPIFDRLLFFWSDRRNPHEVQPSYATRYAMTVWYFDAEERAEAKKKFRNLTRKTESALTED
Sequence of PHD1 (Q96KS0 whole entry): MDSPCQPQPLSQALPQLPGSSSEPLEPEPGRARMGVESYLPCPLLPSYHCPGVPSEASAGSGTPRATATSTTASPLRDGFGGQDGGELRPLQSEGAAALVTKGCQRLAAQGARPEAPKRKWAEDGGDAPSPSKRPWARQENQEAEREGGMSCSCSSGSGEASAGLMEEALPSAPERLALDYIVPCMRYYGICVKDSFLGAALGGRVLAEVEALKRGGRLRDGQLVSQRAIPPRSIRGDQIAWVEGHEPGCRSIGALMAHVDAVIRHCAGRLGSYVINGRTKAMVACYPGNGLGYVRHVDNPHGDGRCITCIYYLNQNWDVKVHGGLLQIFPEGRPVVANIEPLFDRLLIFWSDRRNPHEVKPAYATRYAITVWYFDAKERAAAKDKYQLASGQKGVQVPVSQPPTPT

- IC50 (PHD3): 200 to 2000 nM
- IC50 (PHD1): 200 to 2000 nM
SMILES: Cc1nc(C(=O)NCC(=O)O)c(O)c2ccc(Oc3ccccc3)cc12 [Compound A, [(4-Hydroxy-1-methyl-7-phenoxy-isoquinoline-3-carbonyl)-amino]-acetic acid]
- reduction in total cholesterol by baseline total cholesterol ≦200 or >200 mg/dL ([1]; 19-week study, FIGS. 6A and B): appears to be larger for the subjects with higher cholesterol at BL
- LDL [1, 5]: 203.40
- LDL change from BL [1, 5]: 0.00
- TC [1, 5]: 275.80
- TC change from BL [1, 5]: 0.00
- LDL [1, 6]: 164.20
- LDL change from BL [1, 6]: −39.20
- TC [1, 6]: 239.20
- TC change from BL [1, 6]: −36.60
- LDL [1, 7]: 81.20
- LDL change from BL [1, 7]: 0.00
- TC [1, 7]: 157.90
- TC change from BL [1, 7]: 0.00
- LDL [1, 8]: 62.20
- LDL change from BL [1, 8]: −19.00
- TC [1, 8]: 128.20
- TC change from BL [1, 8]: −29.70
- hemoglobin levels ([1]; ESRD patients on dialysis, 0.8 to 3.0 mg/kg three times a week): effectively corrected hemoglobin levels
- total cholesterol, subjects with or without prior history of hyperlipidemia and/or hypercholesterolemia ([1]; Study 2 (6 weeks), FIG. 4): reduced the total cholesterol level of subjects in similar fashion
- HDL, lipid panel [1, 9]: slight decrease
- LDL, lipid panel [1, 9]: significant reduction
- VLDL, lipid panel [1, 9]: significant reduction
- total cholesterol, lipid panel [1, 9]: significant reduction
- triglycerides, lipid panel [1, 9]: significant reduction
- change in total cholesterol from baseline over time ([1]; treated for 19 weeks, FIG. 2): significant decrease in total cholesterol
- Total Cholesterol change ([2]; Mean (±SD), Compound A orally three times a week (n=74) or continued epoetin alfa (n=22)): −15 (38)** mg/dL
- Mean total cholesterol change, decrease ([2]; all cohorts): 15 mg/dL
- HDL decrease from baseline (Sprague-Dawley rats): 21 ± 7 mg/dL
- LDL decrease from baseline (Sprague-Dawley rats): 11 ± 3 mg/dL
- total cholesterol decrease from baseline (Sprague-Dawley rats): 26 ± 9 mg/dL
- LDL Cholesterol (healthy subjects; 0 hours): 95 (36) mg/dL
- Total Cholesterol (healthy subjects; 0 hours): 165 (33) mg/dL
- LDL Cholesterol (healthy subjects; 1 hours): 95 (36) mg/dL
- Total Cholesterol (healthy subjects; 1 hours): 164 (30) mg/dL
- LDL Cholesterol (healthy subjects; 2 hours): 97 (35) mg/dL
- Total Cholesterol (healthy subjects; 2 hours): 167 (32) mg/dL
- LDL Cholesterol (healthy subjects; 24 hours): 96 (36) mg/dL
- Total Cholesterol (healthy subjects; 24 hours): 161 (31) mg/dL
- LDL Cholesterol (healthy subjects; 72 hours): 92 (27) mg/dL
- Total Cholesterol (healthy subjects; 72 hours): 154 (26) mg/dL
- LDL Cholesterol (healthy subjects; 168 hours): 77 (31) mg/dL
- Total Cholesterol (healthy subjects; 168 hours): 144 (24) mg/dL
- LDL Cholesterol (healthy subjects; 240 hours): 78 (29) mg/dL
- Total Cholesterol (healthy subjects; 240 hours): 144 (23) mg/dL
- LDL Cholesterol (healthy subjects; 408 hours): 86 (29) mg/dL
- Total Cholesterol (healthy subjects; 408 hours): 152 (22) mg/dL
- Mean BL LDL-C ([3]; baseline (pre-treatment)): 102.60 mg/dL
- Mean BL Total Cholesterol ([3]; baseline (pre-treatment)): 166.84 mg/dL
- Cholesterol total % change [3, 10]: −18.5%
- Cholesterol total change [3, 10]: -33.9 mg/dL
- HDL-C [3, 10]: decreased
- LDL Cholesterol % change [3, 10]: −23.2%
- LDL cholesterol change [3, 10]: -27.9 mg/dL
- percentage of subjects who achieved Hb response (Hb increase of >1 g/dL from baseline Hb) [3, 10]: 86.4%
- mean total cholesterol over the course of treatment ([3]; subjects stratified by BL total cholesterol ≦200 (n=48) or >200 mg/dL (n=13), FIG. 14): reduction
- mean LDL-C over the course of treatment ([3]; subjects stratified by BL total cholesterol ≦200 (n=48) or >200 mg/dL (n=13), FIG. 15): reduction
- total cholesterol by baseline total cholesterol ≦200 or >200 mg/dL ([4]; Study 1, FIG. 5): total cholesterol is reduced in each group
- total cholesterol over time ([4]; all subjects from all cohorts (n=144), during study treatment, FIG. 1): significant decrease in total cholesterol
- LDL, lipid panel [4, 11]: reduce over the course of treatment
- total cholesterol, lipid panel [4, 11]: reduce over the course of treatment
